Assays:
Type in all cases: in vivo
[1] = system: Echinochloa crus-galli (L.) P. Beauv. var. formosensis Ohwi; experiment: Test for Herbicidal Effect in Flooding Treatment (#2), ECHDG at 2-2.5 leaf stage; details: for ECHDG (2-2.5L) #2 herbicidal effect (growth inhibition grade): flooding treatment at 2-2.5 leaf stage, dose 0.2 kg/ha, visual observation on day 21; for ECHDG (2-2.5L) #2 herbicidal effect (growth inhibition rating 0-5): flooding treatment #2, 2-2.5 leaf stage
Method in brief: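 Scoring is a visual 0–5 scale of growth inhibition (0 below 10%, 5 at 90% or more or full withering), taken 21 days after treatment in a glasshouse. Dose was 0.2 kg/ha, applied as acetone/Tween 80 aqueous solution onto flooded soil once seedlings reached the 2–2.5 leaf stage.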

[2] = system: Monochoria vaginalis; experiment: Test for Herbicidal Effect in Flooding Treatment (#1), MONVA; details: for MONVA #1 herbicidal effect (growth inhibition grade): flooding treatment at seeding, dose 2 kg/ha, visual observation on day 21; for MONVA #1 herbicidal effect (growth inhibition rating 0-5): flooding treatment #1
Description: (#1) Test for Herbicidal Effect in Flooding Treatment: Styrol cups each having an opening diameter of 8 cm (about 52 cm^2) were respectively filled with soil (45 ml) which had been passed through a sieve (2 mm). Water (about 115 ml) was mixed with the soil such that the soil was flooded. After the soil stood still for 24 hours, Monochoria vaginalis, Echinochloa crus-galli (L.) P. Beauv. var. formosensis Ohwi, Cyperus difformis (umbrella sedge), and Scirpus juncoides were seeded. Each of the compounds of the present invention was dissolved in acetone, and the obtained product was then diluted with water containing Tween 80®. Each of the resultant chemical solutions was dropped on the entire surface of an associated one of treatment sections, so that each section was treated with 1 ml of the respective chemical solution (a dose of 2 kg/ha). After the treatment, the plants were grown in a glasshouse. On day 21, a survey was conducted on the herbicidal activity by visual observation, and evaluation was made according to the following criteria. 0: Growth inhibition effect is less than 10%. 1: Growth inhibition effect is equal to or greater than 10%, and less than 30%. 2; Growth inhibition effect is equal to or greater than 30%, and less than 50%. 3: Growth inhibition effect equal to or greater than 50%, and less than 70%. 4: Growth inhibition effect is equal to or greater than 70%, and less than 90%. 5: Growth inhibition effect is equal to or greater than 90%, or complete withering is achieved. ECHDG=Echinochloa crus-galli (L.) P. Beauv. var. formosensis Ohwi, MONVA=Monochoria vaginalis, SCIJU=Scirpus juncoides, CYMIC=Cyperus microiria.

[3] = system: Echinochloa crus-galli (L.) P. Beauv. var. formosensis Ohwi; experiment: Test for Herbicidal Effect in Flooding Treatment (#1), ECHDG; details: for ECHDG #1 herbicidal effect (growth inhibition grade): flooding treatment at seeding, dose 2 kg/ha, visual observation on day 21; for ECHDG #1 herbicidal effect (growth inhibition rating 0-5): flooding treatment #1
Method in brief: (§1)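 Flooded soil in cups was seeded 24 h after flooding, then treated with compound in acetone diluted with Tween 80-containing water, dropped onto the water surface at 2 kg/ha. After growth in a glasshouse, growth inhibition was scored visually on day 21 on a 0 (<10%) to 5 (≥90% or complete withering) scale.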

[4] = system: Scirpus juncoides; experiment: Test for Herbicidal Effect in Flooding Treatment (#1), SCIJU; details: for SCIJU #1 herbicidal effect (growth inhibition grade): flooding treatment at seeding, dose 2 kg/ha, visual observation on day 21; for SCIJU #1 herbicidal effect (growth inhibition rating 0-5): flooding treatment #1
Method in brief: as §1

SMILES | ECHDG (2-2.5L) #2 herbicidal effect (growth inhibition grade) [1] | MONVA #1 herbicidal effect (growth inhibition grade) [2] | ECHDG #1 herbicidal effect (growth inhibition grade) [3] | SCIJU #1 herbicidal effect (growth inhibition grade) [4] | ECHDG (2-2.5L) #2 herbicidal effect (growth inhibition rating 0-5) [1] | MONVA #1 herbicidal effect (growth inhibition rating 0-5) [2] | ECHDG #1 herbicidal effect (growth inhibition rating 0-5) [3] | SCIJU #1 herbicidal effect (growth inhibition rating 0-5) [4]
COC(=O)C(c1c(F)cccc1OC(F)F)S(=O)(=O)c1ncc(Cl)s1 (racemic) [Compound 1C-145] | 5 (Growth inhibition effect is equal to or greater than 90%, or complete withering is achieved) | 5 (Growth inhibition effect is equal to or greater than 90%, or complete withering is achieved) | 5 (Growth inhibition effect is equal to or greater than 90%, or complete withering is achieved) | 5 (Growth inhibition effect is equal to or greater than 90%, or complete withering is achieved) | – | – | – | –
CC(=O)C(c1c(F)cccc1OC(F)F)S(=O)(=O)c1ncc(Cl)s1 (racemic) [Compound 1C-146] | 5 (Growth inhibition effect is equal to or greater than 90%, or complete withering is achieved) | 5 (Growth inhibition effect is equal to or greater than 90%, or complete withering is achieved) | 5 (Growth inhibition effect is equal to or greater than 90%, or complete withering is achieved) | 5 (Growth inhibition effect is equal to or greater than 90%, or complete withering is achieved) | – | – | – | –
CC(c1c(F)cccc1OCCC(F)(F)F)S(=O)(=O)c1ncc(Cl)s1 (racemic) [Compound 1C-149] | 4 (Growth inhibition effect is equal to or greater than 70%, and less than 90%) | 5 (Growth inhibition effect is equal to or greater than 90%, or complete withering is achieved) | 5 (Growth inhibition effect is equal to or greater than 90%, or complete withering is achieved) | 5 (Growth inhibition effect is equal to or greater than 90%, or complete withering is achieved) | – | – | – | –
COc1cccc(Cl)c1C[S+]([O-])c1ncc(Cl)s1 (stereo not drawn) [Compound 1B-1] | – | – | – | – | 4 (Growth inhibition effect is equal to or greater than 70%, and less than 90%) | 3 (Growth inhibition effect equal to or greater than 50%, and less than 70%) | 5 (Growth inhibition effect is equal to or greater than 90%, or complete withering is achieved) | 4 (Growth inhibition effect is equal to or greater than 70%, and less than 90%)
[O-][S+](Cc1ccccc1OC(F)F)c1ncc(Cl)s1 (stereo not drawn) [Compound 1B-2] | – | – | – | – | 5 (Growth inhibition effect is equal to or greater than 90%, or complete withering is achieved) | 5 (Growth inhibition effect is equal to or greater than 90%, or complete withering is achieved) | 5 (Growth inhibition effect is equal to or greater than 90%, or complete withering is achieved) | 5 (Growth inhibition effect is equal to or greater than 90%, or complete withering is achieved)
[O-][S+](Cc1c(F)cccc1OC(F)F)c1ncc(Cl)s1 (stereo not drawn) [Compound 1B-3] | – | – | – | – | 5 (Growth inhibition effect is equal to or greater than 90%, or complete withering is achieved) | 5 (Growth inhibition effect is equal to or greater than 90%, or complete withering is achieved) | 5 (Growth inhibition effect is equal to or greater than 90%, or complete withering is achieved) | 5 (Growth inhibition effect is equal to or greater than 90%, or complete withering is achieved)
